This passage reports Ki and microsomal CLint results from patent publication US10160744B2, “Quinoline compounds suitable for treating disorders that respond to the modulation of the serotonin 5-HT6 receptor” (Abbvie Deutschland GmbH & Co. KG, priority 2016, dated 2018).

Some results are limits rather than exact numbers.

In one data set the target is T1, h-5-HT6 receptor (Homo sapiens, UniProt P50406).
T1 construct: expressed in transfected cells
Nature of the data set: 5-HT6 receptor binding assay (displacement of [3H]-LSD). The following applies: cloned human 5-HT6 receptor, HEK293 membranes, 1 nM [3H]-LSD. On the procedure:
Displacement of radioligands binding to the following cloned human receptors
1. Preparation of Membranes by Ultrasonic Treatment and Differential Centrifugation
Cells from stable clonal cell lines expressing the corresponding receptor (5-HT6, α1-adrenergic, dopamine D2 or histamine H1 receptors) were washed with PBS (w/o Ca^++, Mg^++) and harvested in PBS with 0.02% EDTA. The cells were collected by centrifugation at 500 g for 10 min. at 4° C., washed with PBS and centrifuged (500 g, 10 min. 4° C.). The pellets were stored at −80° C. until use. For membrane preparation, the thawed cell pellet was resuspended in ice-cold sucrose buffer (0.25 M sucrose, 10 mM Hepes (pH 7.4), 1 mM Phenylmethylsulfonyl fluoride (PMSF) in DMSO, 5 μg/ml Pepstatin-A, 3 mM EDTA, 0.025% Bacitracin) and homogenized with a Branson Sonifier W-250 (Settings: Timer 4; Output Control 3; Duty Cycle constant; 2 to 3 cycles). Cell disruption was checked with the aid of a microscope. Remaining unbroken cells were pelleted at 1.000 g for 10 min. at 4° C. The sucrose buffer supernatant was then centrifuged at 60.000 g for 1 h at 4° C. (Beckman Ultrazentrifuge XL 80). The pellet was resuspended in 30 ml ice-cold Tris buffer (20 mM TRIS (pH 7.4), 5 μg/ml Pepstatin A, 0.1 mM PMSF, 3 mM EDTA) by pipetting through a 10 ml serological pipet and centrifuged for 1 h at 4° C. at 60.000 g. A final resuspension was performed in a small volume of ice-cold Tris buffer (see above) by pressing through a serological pipet followed by ultrasonic treatment with a Branson Sonifier W-250 (Settings: Timer 1; Output Control 3; Duty Cycle constant; 1 cycle). Protein concentration was determined (BCA-Kit; Pierce) and aliquots stored at −80° C. or in liquid nitrogen for long-term storage.
2. Receptor Binding Experiments
All receptor binding experiments were carried out in the corresponding assay buffer in a total volume of 200 μl in the presence of various concentrations of test compound (10^−5 M to 10^−9 M, tenfold serial dilution, duplicate determinations). The assays were terminated by filtration on polyethylenimine (PEI 0.1% or 0.3%) presoaked Packard Unifilter Plates (GF/C or GF/B) with a Tomtec MachIII U 96 well-plate harvester. After the plates had been dried for 2 h at 55° C. in a drying chamber scintillation cocktail (BetaPlate Scint; PerkinElmer) was added. Radioactivity was measured in a Microbeta Trilux two hours after the addition of the scintillation mixture. Data derived from liquid scintillation counting were analysed by iterative non-linear regression analysis with the use of the Statistical Analysis System (SAS): a program similar to “LIGAND” as described by Munson and Rodbard (Analytical Biochemistry 107, 220-239 (1980).
a) 5-HT6 Receptor Binding Assay
HEK293 cells stably expressing the h-5-HT6 receptor (NCBI Reference Sequence XM 001435) were cultured in RPMI1640 medium supplemented with 25 mM HEPES, 10% fetal calf serum and 1-2 mM glutamine. The membrane preparation was performed as described in section 1. […] Non-specific binding was defined with 1 μM methiothepin. The binding reaction was carried out for 3.5 h at room temperature. During the incubation, the plates were shaken on a plate shaker at 100 rpm and terminated by filtration on Packard Unifilter GF/C (0.1% PEI) plates, followed by 2 wash cycles with ice-cold 50 mM Tris-HCl, 5 mM CaCl2.
Data derived from liquid scintillation counting were analyzed by iterative non-linear regression analysis with the use of the Statistical Analysis System (SAS): a program similar to “LIGAND” as described by Munson and Rodbard (Anal. Biochem. 1980, 107, 220-239). Fitting was performed according to formulae described by Feldman (Anal. Biochem. 1972, 48, 317-338). IC50, nH and Ki values were expressed as geometrical mean.

Data set [1] can be described thus: Metabolic stability in human liver microsomes (microsomal clearance). It counts as in vitro ADME. The following applies: pH 7.4; human liver microsomes 0.25 mg protein/mL, 0.5 μM compound, NADPH, 37° C.; read-out: mClint. On the procedure:
Samples of the tested compounds (0.5 μM) were preincubated together with human liver microsomes (0.25 mg of microsomal protein/mL) in 0.05 M potassium phosphate buffer of pH 7.4 in microtiter plates at 37° C. for 5 minutes. The reaction was started by adding NADPH (1.0 mM). After 0, 5, 10, 15, 20 and 30 minutes, an aliquot was removed, the reaction was cooled and stopped by adding twice the amount of quench solution consisting of acetonitrile/methanol 1:1, and containing 0.2 μM carbutamide as internal standard. The samples were frozen until analyzed. The remaining concentration of undegraded test substance was determined by liquid chromatography-tandem mass spectrometry (LC-MS/MS). The half-life (t1/2) was determined from the gradient of the ratio of the signal of (test substance/internal standard)/unit time plot, allowing the calculation of the half-life of the test substance, assuming first order kinetics, from the decrease in the concentration of the compound with time. The microsomal clearance (mClint) was calculated as follows: mClint=((ln(2)/t 1/2)/Microsomal Protein Concentration (mg/ml))*1000, leading to the unit of μL/min/mg.

T1 sequence (P50406 whole entry): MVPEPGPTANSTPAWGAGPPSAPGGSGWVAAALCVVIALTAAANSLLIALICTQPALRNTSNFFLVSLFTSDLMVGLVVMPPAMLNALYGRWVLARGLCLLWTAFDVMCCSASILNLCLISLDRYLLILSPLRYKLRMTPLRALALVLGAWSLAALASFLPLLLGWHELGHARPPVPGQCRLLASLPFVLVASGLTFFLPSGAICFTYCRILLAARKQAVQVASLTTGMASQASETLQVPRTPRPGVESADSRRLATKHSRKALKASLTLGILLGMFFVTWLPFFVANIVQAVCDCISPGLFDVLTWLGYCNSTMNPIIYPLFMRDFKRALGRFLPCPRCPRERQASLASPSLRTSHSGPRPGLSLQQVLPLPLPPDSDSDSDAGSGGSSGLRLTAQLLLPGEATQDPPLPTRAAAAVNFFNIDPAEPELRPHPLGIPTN

As for `O=S(=O)(c1ccccc1)c1cnc2c(N3CC[C@@H](O)[C@@H](O)C3)cccc2c1` [Example 41, (3S,4R)-1-[3-(Benzenesulfonyl)-8-quinolyl]piperidine-3,4-diol], the inhibition constant Ki on h-5-HT6 receptor is less than 10 nM. The microsomal CLint at 0.5 μM in data set [1] was less than 30 µL/min/mg.
The like results for `O=C(O)[C@@H]1CCN(c2cccc3cc(S(=O)(=O)c4cccc(C(F)(F)F)c4)cnc23)C1` [Example 12, (3R)-1-[3-[3-(Trifluoromethyl)phenyl]sulfonyl-8-quinolyl]pyrrolidine-3-carboxylic Acid] were, in that order, 10 to 100 nM and less than 30 µL/min/mg.
Take `N#Cc1cccc(S(=O)(=O)c2cnc3c(N4CCC(C(=O)O)CC4)cccc3c2)c1` [Example 47, 1-[3-(3-Cyanophenyl)sulfonyl-8-quinolyl]piperidine-4-carboxylic Acid]: the microsomal CLint at 0.5 μM in data set [1] was less than 30 µL/min/mg.
With `COc1cccc(S(=O)(=O)c2cnc3c(N4CCC(O)CC4)cccc3c2)c1` [Example 13, 1-[3-(3-Methoxyphenyl)sulfonyl-8-quinolyl]piperidin-4-ol], the Ki at h-5-HT6 receptor was less than 10 nM. In addition, the microsomal CLint at 0.5 μM in data set [1] is 60 to 120 µL/min/mg.
The like results for `O=C(O)C1CCN(c2cccc3cc(S(=O)(=O)c4cccc(C(F)(F)F)c4)cnc23)CC1` [Example 3, 1-[3-(3-Trifluoromethyl-benzenesulfonyl)-quinolin-8-yl]-piperidine-4-carboxylic Acid] were, in that order, less than 10 nM and less than 30 µL/min/mg.
The like results for `O=S(=O)(c1cccc(OC(F)F)c1)c1cnc2c(N3CCC(O)CC3)cccc2c1` [Example 29, 1-[3-[3-(Difluoromethoxy)phenyl]sulfonyl-8-quinolyl]piperidin-4-ol] were, in that order, less than 10 nM and less than 30 µL/min/mg.
For `O=S(=O)(c1cccc(F)c1)c1cnc2c(N3CCC[C@@H](O)C3)cccc2c1` [Example 20, (3R)-1-[3-(3-Fluorophenyl)sulfonyl-8-quinolyl]piperidin-3-ol], in that order: less than 10 nM and 30 to 60 µL/min/mg.
As for `O=S(=O)(c1cccc(F)c1)c1cnc2c(N3CC[C@H](O)C3)cccc2c1` [Example 26, (3S)-1-[3-(3-Fluorophenyl)sulfonyl-8-quinolyl]pyrrolidin-3-ol], at h-5-HT6 receptor, the Ki is less than 10 nM.
For the molecule `O=C(O)CC1CCN(c2cccc3cc(S(=O)(=O)c4cccc(C(F)(F)F)c4)cnc23)CC1` [Example 57, 2-[1-[3-[3-(Trifluoromethyl)phenyl]sulfonyl-8-quinolyl]-4-piperidyl]acetic Acid], the microsomal CLint at 0.5 μM in data set [1] was less than 30 µL/min/mg.
Consider `COc1cccc(S(=O)(=O)c2cnc3c(N4CC(O)C4)cccc3c2)c1` [Example 14, 1-[3-(3-Methoxyphenyl)sulfonyl-8-quinolyl]azetidin-3-ol], for which the Ki on h-5-HT6 receptor was 10 to 100 nM.
On to `O=C(O)C1CCN(c2cccc3cc(S(=O)(=O)c4cccc(OC(F)(F)F)c4)cnc23)CC1` [Example 51, 1-[3-[3-(Trifluoromethoxy)phenyl]sulfonyl-8-quinolyl]piperidine-4-carboxylic Acid], for which the microsomal CLint at 0.5 μM in data set [1] was in the range of 30 to 60 µL/min/mg.
In turn, `O=S(=O)(c1cnc2c(F)cccc2c1)c1ccccc1N1CC(O)C1` [Example 38, 1-[2-[(8-Fluoro-3-quinolyl)sulfonyl]phenyl]azetidin-3-ol] came in with an inhibition constant (Ki) at h-5-HT6 receptor of 100 to 500 nM.
Same read-out and setting: under `NC(=O)C1CCCN(c2cccc3cc(S(=O)(=O)c4cccc(C(F)(F)F)c4)cnc23)C1` (stereo not shown) [Example 46, 1-[3-(3-Trifluoromethyl-benzenesulfonyl)-quinolin-8-yl]-piperidine-3-carboxylic Acid Amide] stands less than 10 nM.
In the case of `O=C(O)C1CCN(c2cccc3cc(S(=O)(=O)c4cccc(F)c4)cnc23)CC1` [Example 52, 1-[3-(3-Fluorophenyl)sulfonyl-8-quinolyl]piperidine-4-carboxylic Acid], the microsomal CLint at 0.5 μM in data set [1] was in the range of 30 to 60 µL/min/mg.
As for `O=C(O)c1cccc(S(=O)(=O)c2cnc3c(N4CCC(C(=O)O)CC4)cccc3c2)c1` [Example 49, 1-[3-(3-Carboxyphenyl)sulfonyl-8-quinolyl]piperidine-4-carboxylic Acid], the microsomal CLint at 0.5 μM in data set [1] was less than 30 µL/min/mg.
`COc1ccc(C)cc1S(=O)(=O)c1cnc2c(N3CC(O)C3)cccc2c1` [Example 40, 1-[3-(2-Methoxy-5-methyl-phenyl)sulfonyl-8-quinolyl]azetidin-3-ol] showed a Ki at h-5-HT6 receptor of 10 to 100 nM.
Same read-out and setting: to `O=S(=O)(c1cnc2c(F)cccc2c1)c1ccccc1N1CCC(O)CC1` [Example 25, 1-[2-[(8-Fluoro-3-quinolyl)sulfonyl]phenyl]piperidin-4-ol] belongs 10 to 100 nM; to `COc1ccc(C)cc1S(=O)(=O)c1cnc2c(N3CCC(O)CC3)cccc2c1` [Example 35, 1-[3-(2-Methoxy-5-methyl-phenyl)sulfonyl-8-quinolyl]piperidin-4-ol], 10 to 100 nM.
With `O=C(O)CC1CCCN(c2cccc3cc(S(=O)(=O)c4cccc(C(F)(F)F)c4)cnc23)C1` (stereo not shown) [Example 58, 2-[1-[3-[3-(Trifluoromethyl)phenyl]sulfonyl-8-quinolyl]-3-piperidyl]acetic Acid], the microsomal CLint at 0.5 μM in data set [1] lay in the range of 30 to 60 µL/min/mg.
Regarding `COC1CCN(c2cccc(S(=O)(=O)c3cnc4c(N5CCC(C(=O)O)CC5)cccc4c3)c2)C1` (stereo not shown) [Example 54, 1-[3-[3-(3-Methoxypyrrolidin-1-yl)phenyl]sulfonyl-8-quinolyl]piperidine-4-carboxylic Acid], the microsomal CLint at 0.5 μM in data set [1] is less than 30 µL/min/mg.
On to `O=C(O)C1CCN(c2cccc3cc(S(=O)(=O)c4cccc(N5CCCC5)c4)cnc23)CC1` [Example 53, 1-[3-(3-Pyrrolidin-1-ylphenyl)sulfonyl-8-quinolyl]piperidine-4-carboxylic Acid], for which the microsomal CLint at 0.5 μM in data set [1] is 30 to 60 µL/min/mg.
Take `Cc1cccc(S(=O)(=O)c2cnc3c(N4CCC(C(=O)O)CC4)cccc3c2)c1` [Example 50, 1-[3-(m-Tolylsulfonyl)-8-quinolyl]piperidine-4-carboxylic Acid]: the microsomal CLint at 0.5 μM in data set [1] is less than 30 µL/min/mg.
Take `O=C(O)C1CCN(c2cccc3cc(S(=O)(=O)c4cccc(N5CCNCC5)c4)cnc23)CC1` [Example 55, 1-[3-(3-Piperazin-1-ylphenyl)sulfonyl-8-quinolyl]piperidine-4-carboxylic Acid]: the microsomal CLint at 0.5 μM in data set [1] was less than 30 µL/min/mg.
Turning to `CN1CCN(c2cccc(S(=O)(=O)c3cnc4c(N5CCC(C(=O)O)CC5)cccc4c3)c2)CC1` [Example 56, 1-[3-[3-(4-Methylpiperazin-1-yl)phenyl]sulfonyl-8-quinolyl]piperidine-4-carboxylic Acid], the microsomal CLint at 0.5 μM in data set [1] was less than 30 µL/min/mg.
`O=C(O)[C@H]1CCN(c2cccc3cc(S(=O)(=O)c4cccc(C(F)(F)F)c4)cnc23)C1` [Example 11, (3S)-1-[3-[3-(Trifluoromethyl)phenyl]sulfonyl-8-quinolyl]pyrrolidine-3-carboxylic Acid]: at h-5-HT6 receptor, the Ki was 10 to 100 nM.
